Laboratory results from patent US20210085640A1, “ACYLATED CATECHIN POLYPHENOLS AND METHODS OF THEIR USE FOR THE TREATMENT OF CANCER” (Flagship Pioneering Innovations V, Inc., priority 2018, published 2021).

Tests used:
Type in all cases: cell-based
T24 bladder cancer cells = test: Cancer cell survival (CellTiter-Glo), T24; settings: Homo sapiens
How it was run: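 Viability by CellTiter-Glo after 72 h compound treatment of T24 bladder cancer cells (4×10^3/well, plated the night before), nine concentration levels in triplicate. Percent survival normalised to untreated cells minus medium background, from which IC50 was determined.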

[1] = system: Daudi lymphoma cancer cells; test: Cancer cell survival (CellTiter-Glo), Daudi; settings: Homo sapiens, 72 h
How it was run: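 Daudi cells (4×10^3/well) were exposed for 72 h at 37 °C to nine concentrations of compound, added as 10× solutions spanning 1 μM–10 mM (fatty acids) or 100 nM–1 mM (others). CellTiter-Glo luminescence gave % survival versus untreated, medium-blank corrected; IC50 derived.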

MCF7 breast cancer cells = test: Cancer cell survival (CellTiter-Glo), MCF7; settings: Homo sapiens, 72 h
How it was run: (§1)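 Following overnight plating of 4×10^3 cells per well, triplicate wells received compound at nine concentrations (10× dosing stocks: fatty acids 1 μM-10 mM, all others 100 nM-1 mM). Incubation lasted 72 h at 37 C under 5% CO2. CellTiter-Glo luminescence then gave percent survival and IC50.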

[2] = system: HCT 116 colorectal cancer cells; test: Cancer cell survival (CellTiter-Glo), HCT 116; settings: Homo sapiens, HCT 116 cells, 72 h
How it was run: as §1

A549 lung cancer cells = test: Cancer cell survival (CellTiter-Glo), A549; settings: Homo sapiens, 72 h
How it was run: as §1

[3] = system: PC-3 prostate cancer cells; test: Cancer cell survival (CellTiter-Glo), PC-3; settings: Homo sapiens, PC-3 cells, 72 h
How it was run: as §1

A-431 skin cancer cells = test: Cancer cell survival (CellTiter-Glo), A-431; settings: Homo sapiens, A-431 cells, 72 h
How it was run: as §1

AGS stomach cancer cells = test: Cancer cell survival (CellTiter-Glo), AGS
How it was run: as §1

[4] = 317 μM, read-out: Cell survival at given concentration
[5] = 1 mM, read-out: Cell survival at given concentration
[6] = 3 mM, read-out: Cell survival at given concentration
[7] = 10 mM, read-out: Cell survival at given concentration

CCCC(=O)O [butyrate]
viability at 1 µM (T24 bladder cancer cells; T-24, 1 μM, 72 h, Table 3.2, read-out: Cell survival at given concentration): 98%
viability at 3 µM (T24 bladder cancer cells; T-24, 3 μM, 72 h, Table 3.2, read-out: Cell survival at given concentration): 100%
viability at 10 µM (T24 bladder cancer cells; T-24, 10 μM, 72 h, Table 3.2, read-out: Cell survival at given concentration): 105%
viability at 32 µM (T24 bladder cancer cells; T-24, 32 μM, 72 h, Table 3.2, read-out: Cell survival at given concentration): 99%
viability at 100 µM (T24 bladder cancer cells; T-24, 100 μM, 72 h, Table 3.2, read-out: Cell survival at given concentration): 97%
viability at 317 µM (T24 bladder cancer cells; T-24, 317 μM, 72 h, read-out: Cell survival at given concentration): 90%
viability at 1000 µM (T24 bladder cancer cells; T-24, 1 mM, 72 h, read-out: Cell survival at given concentration): 84%
viability at 3000 µM (T24 bladder cancer cells; T-24, 3 mM, 72 h, read-out: Cell survival at given concentration): 60%
viability at 10000 µM (T24 bladder cancer cells; T-24, 10 mM, 72 h, read-out: Cell survival at given concentration): 27%
IC50 (T24 bladder cancer cells; T-24, 72 h, Table 3.2, read-out: IC50): 4.72 mM
viability at 1 µM ([1]; 1 μM, Table 4.2, read-out: Cell survival at given concentration): 101%
viability at 3 µM ([1]; 3 μM, Table 4.2, read-out: Cell survival at given concentration): 99%
viability at 10 µM ([1]; 10 μM, Table 4.2, read-out: Cell survival at given concentration): 100%
viability at 32 µM ([1]; 32 μM, Table 4.2, read-out: Cell survival at given concentration): 100%
viability at 100 µM ([1]; 100 μM, Table 4.2, read-out: Cell survival at given concentration): 99%
viability at 317 µM [1, 4]: 87%
viability at 1000 µM [1, 5]: 46%
viability at 3000 µM [1, 6]: 19%
viability at 10000 µM [1, 7]: 13%
IC50 ([1]; Table 4.2): 0.912 mM
viability at 1 µM (MCF7 breast cancer cells; 1 μM, Table 5.2, read-out: Cell survival at given concentration): 101%
viability at 3 µM (MCF7 breast cancer cells; 3 μM, Table 5.2, read-out: Cell survival at given concentration): 103%
viability at 10 µM (MCF7 breast cancer cells; 10 μM, Table 5.2, read-out: Cell survival at given concentration): 102%
viability at 32 µM (MCF7 breast cancer cells; 32 μM, Table 5.2, read-out: Cell survival at given concentration): 100%
viability at 100 µM (MCF7 breast cancer cells; 100 μM, Table 5.2, read-out: Cell survival at given concentration): 104%
viability at 317 µM (MCF7 breast cancer cells; [4]): 98%
viability at 1000 µM (MCF7 breast cancer cells; [5]): 82%
viability at 3000 µM (MCF7 breast cancer cells; [6]): 54%
viability at 10000 µM (MCF7 breast cancer cells; [7]): 24%
IC50 (MCF7 breast cancer cells; Table 5.2): 3.59 mM
viability at 1 µM ([2]; 1 μM, Table 6.2, read-out: Cell survival at given concentration): 98%
viability at 3 µM ([2]; 3 μM, Table 6.2, read-out: Cell survival at given concentration): 99%
viability at 10 µM ([2]; 10 μM, Table 6.2, read-out: Cell survival at given concentration): 102%
viability at 32 µM ([2]; 32 μM, Table 6.2, read-out: Cell survival at given concentration): 101%
viability at 100 µM ([2]; 100 μM, Table 6.2, read-out: Cell survival at given concentration): 97%
viability at 317 µM [2, 4]: 92%
viability at 1000 µM [2, 5]: 66%
viability at 3000 µM [2, 6]: 18%
viability at 10000 µM [2, 7]: 1%
IC50 ([2]; Table 6.2): 1.44 mM
viability at 1 µM (A549 lung cancer cells; 1 μM, Table 7.2, read-out: Cell survival at given concentration): 95%
viability at 3 µM (A549 lung cancer cells; 3 μM, Table 7.2, read-out: Cell survival at given concentration): 96%
viability at 10 µM (A549 lung cancer cells; 10 μM, Table 7.2, read-out: Cell survival at given concentration): 99%
viability at 32 µM (A549 lung cancer cells; 32 μM, Table 7.2, read-out: Cell survival at given concentration): 100%
viability at 100 µM (A549 lung cancer cells; 100 μM, Table 7.2, read-out: Cell survival at given concentration): 102%
viability at 317 µM (A549 lung cancer cells; [4]): 101%
viability at 1000 µM (A549 lung cancer cells; [5]): 90%
viability at 3000 µM (A549 lung cancer cells; [6]): 67%
viability at 10000 µM (A549 lung cancer cells; [7]): 27%
IC50 (A549 lung cancer cells; Table 7.2): 5.07 mM
viability at 1 µM ([3]; 1 μM, Table 8.2, read-out: Cell survival at given concentration): 100%
viability at 3 µM ([3]; 3 μM, Table 8.2, read-out: Cell survival at given concentration): 99%
viability at 10 µM ([3]; 10 μM, Table 8.2, read-out: Cell survival at given concentration): 100%
viability at 32 µM ([3]; 32 μM, Table 8.2, read-out: Cell survival at given concentration): 100%
viability at 100 µM ([3]; 100 μM, Table 8.2, read-out: Cell survival at given concentration): 98%
viability at 317 µM [3, 4]: 93%
viability at 1000 µM [3, 5]: 82%
viability at 3000 µM [3, 6]: 66%
viability at 10000 µM [3, 7]: 40%
IC50 ([3]; Table 8.2): 6.44 mM
viability at 1 µM (A-431 skin cancer cells; 1 μM, Table 9.2, read-out: Cell survival at given concentration): 103%
viability at 3 µM (A-431 skin cancer cells; 3 μM, Table 9.2, read-out: Cell survival at given concentration): 102%
viability at 10 µM (A-431 skin cancer cells; 10 μM, Table 9.2, read-out: Cell survival at given concentration): 102%
viability at 32 µM (A-431 skin cancer cells; 32 μM, Table 9.2, read-out: Cell survival at given concentration): 103%
viability at 100 µM (A-431 skin cancer cells; 100 μM, Table 9.2, read-out: Cell survival at given concentration): 99%
viability at 317 µM (A-431 skin cancer cells; [4]): 96%
viability at 1000 µM (A-431 skin cancer cells; [5]): 85%
viability at 3000 µM (A-431 skin cancer cells; [6]): 67%
viability at 10000 µM (A-431 skin cancer cells; [7]): 37%
IC50 (A-431 skin cancer cells; Table 9.2): 6.32 mM
viability at 1 µM (AGS stomach cancer cells; 72 h, 1 μM, Table 10.2, read-out: Cell survival at given concentration): 100%
viability at 3 µM (AGS stomach cancer cells; 72 h, 3 μM, Table 10.2, read-out: Cell survival at given concentration): 100%
viability at 10 µM (AGS stomach cancer cells; 72 h, 10 μM, Table 10.2, read-out: Cell survival at given concentration): 102%
viability at 32 µM (AGS stomach cancer cells; 72 h, 32 μM, Table 10.2, read-out: Cell survival at given concentration): 101%
viability at 100 µM (AGS stomach cancer cells; 72 h, 100 μM, Table 10.2, read-out: Cell survival at given concentration): 104%
viability at 317 µM (AGS stomach cancer cells; 72 h, 317 μM, read-out: Cell survival at given concentration): 105%
viability at 1000 µM (AGS stomach cancer cells; 72 h, 1 mM, read-out: Cell survival at given concentration): 91%
viability at 3000 µM (AGS stomach cancer cells; 72 h, 3 mM, read-out: Cell survival at given concentration): 65%
viability at 10000 µM (AGS stomach cancer cells; 72 h, 10 mM, read-out: Cell survival at given concentration): 11%
IC50 (AGS stomach cancer cells; Table 10.2): 4.46 mM
